In US7691842B2, “Tricyclic 6-alkylidene-penems as β-lactamase inhibitors” (Wyeth LLC, priority 2002, dated 2010):

Tests used:
[1] = target: class A β-lactamase TEM-1 (Escherichia coli, UniProt P62593); assay: β-Lactamase inhibition, IC50 determination (nitrocefin, spectrophotometric); format: biochemical, E. Coli; conditions: enzyme 4.3 nM; 10 min preincubation at 25° C.; nitrocefin 50 μg/ml; 50 mM PO4, pH 7.0; read-out: IC50 (nM) Class A TEM-1
Protocol: (§1) IC50 Determination for the Penem Inhibitor
(§2) β-Lactamase inhibitory activity of the penem inhibitors was determined spectrophotometrically as described by Bush et al., [Bush, K., Macalintal, C., Rasmussen, B. A., Lee, V. and Yang, Y. Antimicrobial Agents and Chemotherapy 1993, 37, 851]. Homogeneously purified class A β-lactamases TEM-1 from E. Coli and Imi-1 from Enterobacter cloacae, class B enzyme CcrA from Bacteroides fragilis and class C enzyme AmpC from Enterobacter cloaca were employed in the assay. The enzyme concentrations for TEM-1, Imi-1, CcrA and AmpC were 4.3, 7.1, 1.2 and 2.1 nM, respectively. A wide range of inhibitor concentrations were prepared in 50 mM PO4, pH 7.0 to include the possible IC50 values. The substrate used to initiate the enzyme reaction was nitrocefin at 50 μg/ml in the same buffer as the inhibitor. Initially the enzyme and inhibitor (20 μl each) were preincubated for 10 minutes at 25° C. prior to the addition of 160 μl volume of nitrocefin. Initial rates of hydrolysis were monitored for 5 minutes at 495 nm using a Molecular Devices Spectra Max 250 with kinetic protocol of SoftMax Program. Readings from the Spectra Max 250 were exported and transferred to Microsoft Excel. The percent of inhibition of each inhibitor concentration was calculated based on the control enzyme activity. The inhibitor concentration that caused a 50% reduction in the enzymatic activity (IC50) was determined graphically.

[2] = target: class A β-lactamase Imi-1 (Enterobacter cloacae, UniProt Q46991); assay: as above; format: biochemical; conditions: enzyme 7.1 nM; 10 min preincubation at 25° C.; nitrocefin 50 μg/ml; 50 mM PO4, pH 7.0; read-out: IC50 (nM) Class A Imi
Chain of class A β-lactamase Imi-1 (Q46991 entry or part of it): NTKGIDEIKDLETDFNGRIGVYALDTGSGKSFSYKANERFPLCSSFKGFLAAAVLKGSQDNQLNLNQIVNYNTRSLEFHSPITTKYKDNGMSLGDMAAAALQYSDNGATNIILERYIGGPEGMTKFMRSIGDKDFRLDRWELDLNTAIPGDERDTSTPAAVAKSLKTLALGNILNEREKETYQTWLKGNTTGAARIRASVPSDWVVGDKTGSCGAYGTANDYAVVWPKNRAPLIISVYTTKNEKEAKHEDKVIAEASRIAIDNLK
Protocol: as §1, §2

[3] = target: class B enzyme CcrA (Bacteroides fragilis, UniProt P25910); assay: as above; format: biochemical; conditions: enzyme 1.2 nM; 10 min preincubation at 25° C.; nitrocefin 50 μg/ml; 50 mM PO4, pH 7.0; read-out: IC50 (nM) Class B Ccr
Chain of class B enzyme CcrA (P25910 19-249): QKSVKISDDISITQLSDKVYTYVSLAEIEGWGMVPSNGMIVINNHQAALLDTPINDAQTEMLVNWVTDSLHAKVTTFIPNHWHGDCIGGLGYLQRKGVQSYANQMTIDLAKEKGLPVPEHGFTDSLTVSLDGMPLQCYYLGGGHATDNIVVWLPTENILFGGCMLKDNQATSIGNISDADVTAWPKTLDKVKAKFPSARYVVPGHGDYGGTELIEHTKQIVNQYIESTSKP
Protocol: as §1, §2

[4] = target: class C enzyme AmpC (Enterobacter cloacae, UniProt P05364); assay: biochemical; set-up: species or system Enterobacter cloaca; conditions: enzyme 2.1 nM; 10 min preincubation at 25° C.; nitrocefin 50 μg/ml; 50 mM PO4, pH 7.0; read-out: IC50 (nM) Class C AmpC
Chain of class C enzyme AmpC (P05364 21-381): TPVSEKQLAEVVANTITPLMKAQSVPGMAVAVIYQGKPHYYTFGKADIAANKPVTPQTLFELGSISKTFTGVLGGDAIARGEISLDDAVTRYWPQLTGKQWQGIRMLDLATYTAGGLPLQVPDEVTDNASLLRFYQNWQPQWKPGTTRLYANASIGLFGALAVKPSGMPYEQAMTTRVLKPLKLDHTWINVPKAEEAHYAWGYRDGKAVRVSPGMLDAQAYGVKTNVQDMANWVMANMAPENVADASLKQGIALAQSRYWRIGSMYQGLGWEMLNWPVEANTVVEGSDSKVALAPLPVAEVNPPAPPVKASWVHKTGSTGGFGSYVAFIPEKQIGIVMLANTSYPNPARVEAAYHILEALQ
Protocol: as §1, §2

[5] = system: E. Cloacae GC1477 (Ampc); assay: Antimicrobial susceptibility testing, microbroth dilution MIC of piperacillin + inhibitor; format: cell-based; conditions: piperacillin combined with constant 4 μg/ml inhibitor; Inc: 35° C. for 18 hours
Protocol: (§3) Antimicrobial susceptibility testing. The in vitro activities of the antibiotics were determined by the microbroth dilution method as recommended by the National Committee for Clinical Laboratory Standards (NCCLS). (NCCLS. 2000. Methods for Dilution Antimicrobial Susceptibility Tests for Bacteria That Grow Aerobically; Approved Standards: M7-A5, vol. 19. National Committee for Clinical Laboratory Standards, Villanova, Pa.). Mueller-Hinton it broth (MHBII)(BBL Cockeysville, Md.), was used for the testing procedure. Microtiter plates containing 50 μl per well of two-fold serial dilutions of piperacillin combined with a constant amount (4 μg/ml) of a B-lactamase inhibitor (final concentration) were inoculated with 50 μl of inoculum to yield the appropriate density (10^5 CFU/ml) in 100 μl. The plates were incubated for 18-22 hours at 35° C. in ambient air.

[6] = system: E. Coli GC2203; assay: as above; format: cell-based; conditions: piperacillin combined with constant 4 μg/ml inhibitor; Inc: 35° C. for 18 hours
Protocol: as §3

[7] = system: E. Coli GC2844; assay: as above; format: cell-based; conditions: piperacillin combined with constant 4 μg/ml inhibitor; Inc: 35° C. for 18 hours
Protocol: as §3

[8] = system: E. Coli GC2847 (TEM-1); assay: as above; format: cell-based; conditions: piperacillin combined with constant 4 μg/ml inhibitor; Inc: 35° C. for 18 hours
Protocol: as §3

[9] = system: E. Coli GC2894 (Ampc); assay: as above; format: cell-based; conditions: piperacillin combined with constant 4 μg/ml inhibitor; Inc: 35° C. for 18 hours
Protocol: as §3

[10] = system: E. Coli GC2920 (IRT-2); assay: as above; format: cell-based; conditions: piperacillin combined with constant 4 μg/ml inhibitor; Inc: 35° C. for 18 hours
Protocol: as §3

[11] = system: P. aeruginos GC1764 (Ampc); assay: as above; format: cell-based; conditions: piperacillin combined with constant 4 μg/ml inhibitor; Inc: 35° C. for 18 hours
Protocol: as §3

[12] = system: S. Marcescens GC1781 Sme-1 + Ampc; assay: as above; format: cell-based; conditions: piperacillin combined with constant 4 μg/ml inhibitor; Inc: 35° C. for 18 hours
Protocol: as §3

[13] = system: S. aureus GC2216; assay: as above; format: cell-based; conditions: piperacillin combined with constant 4 μg/ml inhibitor; Inc: 35° C. for 18 hours
Protocol: as §3

[14] = system: Clinical isolates that have been adapted to cause infection in mice; assay: In vivo antibacterial protection (7 day survival of infected mice, ED50); set-up: species or system mice strain CD-1
From the text: In Vivo Antibacterial Protection
Female mice strain CD-1, approximately 18-22 grams, were received from Charles River Laboratories and quarantined 7 days prior to use. In addition, mice may be rendered neutropenic using cytoxan for particular studies.
Clinical isolates that have been adapted to cause infection in mice, are used in the experiment, including infections with strains of E. coli, K. pneumoniae, M. morganii, E. cloacae, S. marcescens, C. freundii, staphylococci, streptococci, P. aeruginosa and N. gonorrhoeae.
Mice are challenged by injecting 0.5 ml intraperitoneally or 0.05 ml intranasally of a predetermined bacterial inoculum suspended in broth, saline or hog gastric mucin (supplemented with dried bovine hemoglobin for N. gonorrhoeae). […] Antibacterial doses (dose concentration prepared by two fold serial dilutions of the antibiotic) are dissolved or suspended in 0.2% aqueous agar or methocel, phosphate buffered saline or an adjuvant are administered orally, subcutaneously or intravenously in the following manner: • a) Orally or subcutaneously: Dose volume of 0.5 ml administered ½ hr after infection. A second dose may be administered 3 hr. after infection for treatment of infections with more virulent organisms. • b) Intravenously: Dose volume of 0.2 ml, administered ½ hr. after infection. For the treatment of infections with more virulent organisms, more doses, up to 48 hr may be administered. (Intravenous dosing will not exceed 3 doses/24 hr period.) • c) Oral pretreatment: Under special circumstances, the pH of the stomach needs to be adjusted in order to increase the gastric stability of the antibiotic. For this purpose, 0.5 ml of phosphate buffered saline (pH7.8, 0.06M) (or specific approved adjuvant) is administered orally ½ hr after infection, followed 5 minutes later by 0.5 ml of antibiotic (also orally) contained in phosphate buffered saline (pH7.8, 0.06M). Animal Species
A detailed explanation as to the number of animals needed for the determination of in vivo efficacy follows: • A) Novel antibiotics are tested at 5 different dose levels with 5 mice per dose level at each of three routes of administration (oral, subcutaneous and intravenous). […] This would require 25 mice/route with 3 routes/antibiotic or 75 mice per novel compound tested. One to two novel antibiotics will be tested per experiment (75-150 mice) • B) The effectiveness of the new compound must be compared to that of a standard, or antibiotic of known effectiveness. Known or previously tested antibiotics are tested at 5 dose levels with 5 mice per dose level by a single route of administration, for a total of 25 mice/antibiotic. Usually 3-6 antibiotics will be tested per experiment. (75-150 mice). • C) Untreated controls—In each of the above tests, untreated animals are infected with 3 different concentrations of bacterial inoculum with 10 mice per concentration (30 mice total in each and every test). These untreated controls are used to determine and maintain the infection level between 10-100 LD50s as required for test to test comparison and validity. Determination of Protective Effects of Antibacterial Agents:
The protective effects of the antibacterial agent(s) are measured by the survival of the infected untreated as compared to the treated animals. For this determination, animals are observed for 7 days after treatment. A census of survivors is taken twice daily and at that time dead as well as moribund animals are removed. The 7 day survival ratio from three separate tests are pooled for estimation of median effective dose (ED50) by computerized program for probit analysis (Cleeland, R. and E. Squires. 1991. Evaluation of New Antimicrobials in Vitro and in Experimental Animal Infections. In Antibiotics in Laboratory Medicine”, 3rd. ed., edited by Victor Lorian. Willams and Wilkins Baltimore, Md. pp. 752-783). […]

[15] = Ratio of Piperacillin Inhibitor 4:1

Chain of class A β-lactamase TEM-1 (P62593 24-286 limits assumed): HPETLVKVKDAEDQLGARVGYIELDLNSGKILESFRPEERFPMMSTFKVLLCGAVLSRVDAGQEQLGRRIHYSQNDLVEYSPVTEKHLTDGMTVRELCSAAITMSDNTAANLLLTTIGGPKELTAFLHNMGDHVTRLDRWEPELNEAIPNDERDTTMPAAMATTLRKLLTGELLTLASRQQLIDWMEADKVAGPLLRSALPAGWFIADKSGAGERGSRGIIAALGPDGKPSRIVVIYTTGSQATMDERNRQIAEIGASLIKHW

| Structure (SMILES) | IC50 [1] [nM] | IC50 [2] [nM] | IC50 [3] [nM] | IC50 [4] [nM] | Minimal Inhibitory Concentration E. Cloacae GC1477 (Ampc) [5] [µg/mL] | Minimal Inhibitory Concentration E. Coli GC2203 [6] [µg/mL] | Minimal Inhibitory Concentration E. Coli GC2844 [7] [µg/mL] | Minimal Inhibitory Concentration E. Coli GC2847 (TEM-1) [8] [µg/mL] | Minimal Inhibitory Concentration E. Coli GC2894 (Ampc) [9] [µg/mL] | Minimal Inhibitory Concentration E. Coli GC2920 (IRT-2) [10] [µg/mL] | Minimal Inhibitory Concentration P. aeruginos GC1764 (Ampc) [11] [µg/mL] | Minimal Inhibitory Concentration S. Marcescens GC1781 Sme-1 + Ampc [12] [µg/mL] | Minimal Inhibitory Concentration S. aureus GC2216 [13] | ED50 ([14]; Ratio of Piperacillin Inhibitor not given) [mg/kg] | ED50 [14, 15] [mg/kg] |
| --- | --- | --- | --- | --- | --- | --- | --- | --- | --- | --- | --- | --- | --- | --- | --- |
| O=C(O)C1=CS[C@@H]2/C(=C\c3cn4c5c(sc4n3)CCCC5)C(=O)N12 [Example 19, (5R),(6Z)-7-oxo-6-(5,6,7,8-tetrahydroimidazo[2,1-b][1,3]benzothiazol-2-ylmethylene)-4-thia-1-azabicyclo[3.2.0]hept-2-ene-2-carboxylic acid] | 1.9 | 33 | 215 | 0.62 | 32 | 2 | 2 | 8 | 4 | 2 | 1 | 8 | .06 µg/mL | 63 |  |
| O=C(O)C1=CS[C@@H]2/C(=C\c3cn4c(n3)sc3cc(Cl)ccc34)C(=O)N12 [Example 3] | 5.6 | 22 | 74 | 3.2 | 16 | 1 | 2 | 4 | 2 | 1 | 8 | 1 | <0.06 µg/mL |  | 32 to 64 |
| O=C(O)C1=CS[C@@H]2/C(=C\c3cn4c5c(sc4n3)CCC5)C(=O)N12 [Example 5, (5R),(6Z)-6-(6,7-dihydro-5H-cyclopenta[d]imidazo[2,1-b][1,3]thiazol-2-ylmethylene)-7-oxo-4-thia-1-azabicyclo[3.2.0]hept-2-ene-2-carboxylic acid] | 1.4 |  | 240 | 2.1 | 16 | 2 | 2 | 4 | 2 | 2 | 1 | 0.5 | <0.06 µg/mL |  | 19.5 |
| Cc1ccc2c(c1)sc1nc(/C=C3/C(=O)N4C(C(=O)O)=CS[C@H]34)cn12 [Example 7] | 2.6 | 106 | 103 | 1.1 | 32 | 1 | 2 | 4 | 4 | 2 | 16 | 0.5 | <0.06 µg/mL |  | 137 |
| O=C(O)C1=CS[C@@H]2/C(=C\c3ccc4c(c3)sc3nccn34)C(=O)N12 [Example 16, (5R),(6Z)-6-(imidazo[2,1-b]bebzothiazol-7-ylmethylene)-7-oxo-4-thia-1-azabicyclo[3.2.0]hept-2-ene-2-carboxylic acid] | 4.5 | 70 | 130 | 9.5 | >64 | 4 | 2 | 64 | 32 | 2 | 32 | 1 | 0.05 µg/mL |  |  |
